The values below are quoted from earlier work in US20160143918A1, “DRUG RELEASING AGENT BASED ON beta-SITOSTEROL AND A PREPARATION METHOD THEREOF” (School of Medicine Jiaying University, priority 2014, published 2016).

As for `CC[C@H](CC[C@@H](C)[C@H]1CC[C@H]2[C@@H]3CC=C4C[C@@H](O)CC[C@]4(C)[C@H]3CC[C@]12C)C(C)C` [β-sitosterol], the “solubility in organic solvents” value (organic solvents) is listed as “soluble in organic solvents”. For the setting “water”, the solubility in water entry is on record as “insoluble in water”.
